The values that follow are results of earlier work, collected in US20120258914A1, “COACERVATION PROCESS” (Alkermes, Inc., priority 2007, published 2012).

For the substance exendin-4, the secretion of insulin entry (in the presence of elevated blood glucose concentrations, but not during hypoglycemia) is on record as “stimulate secretion of insulin”. Besides, where the note is “in vivo”, the “food intake and body weight” value was “affect food intake and body weight”; the gastric emptying result is given as “slow gastric emptying”; the glucagon secretion result is recorded as “suppress glucagon secretion”.
